Reference: PubChem BioAssay (NCI)
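The compound was tested at five concentrations on cells cultured in 96-well plates, with a 48-hour exposure period. TGI marks complete inhibition of growth.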

How the values were obtained:
Experiment in all cases: NCI-60 cell line screen, 48 h
OVCAR-3 ovarian = tested on: OVCAR-3 ovarian
HCT-15 colon = tested on: HCT-15 colon
SF-268 CNS = tested on: SF-268 CNS
NCI-H23 lung = tested on: NCI-H23 lung
ACHN renal = tested on: ACHN renal
SK-MEL-28 melanoma = tested on: SK-MEL-28 melanoma
HOP-92 NSCLC = tested on: HOP-92 NSCLC
U251 CNS = tested on: U251 CNS
SK-OV-3 ovarian = tested on: SK-OV-3 ovarian
PC-3 prostate = tested on: PC-3 prostate

O=C1c2ccccc2C2(c3ccc(Cl)cc3)NCc3ccccc3CN12 (stereo not given)
TGI (OVCAR-3 ovarian): 26.6 µM | TGI (HCT-15 colon): 60.7 µM | TGI (SF-268 CNS): > 100 µM | TGI (NCI-H23 lung): 48.4 µM | TGI (ACHN renal): 51.6 µM | TGI (SK-MEL-28 melanoma): > 100 µM | TGI (HOP-92 NSCLC): 56 µM | TGI (U251 CNS): > 100 µM | TGI (SK-OV-3 ovarian): 80.9 µM | TGI (PC-3 prostate): 51.3 µM

CCCCCC(/C=C/[C@@H]1CC(=O)C[C@H]1O[Si](C)(C)C(C)(C)C)OCOCCOC (stereo not given in full)
TGI (OVCAR-3 ovarian): 11.3 µM | TGI (HCT-15 colon): 15.2 µM | TGI (SF-268 CNS): 10.5 µM | TGI (NCI-H23 lung): 12.9 µM | TGI (ACHN renal): 8.76 µM | TGI (SK-MEL-28 melanoma): 10.5 µM | TGI (HOP-92 NSCLC): 6.03 µM | TGI (U251 CNS): 8.08 µM | TGI (SK-OV-3 ovarian): 32 µM | TGI (PC-3 prostate): 14.1 µM

c1ccc([C@H]2CN3CCSC3=N2)cc1
TGI (OVCAR-3 ovarian): > 100 µM | TGI (HCT-15 colon): > 100 µM | TGI (SF-268 CNS): > 100 µM | TGI (NCI-H23 lung): > 100 µM | TGI (ACHN renal): > 100 µM | TGI (SK-MEL-28 melanoma): > 100 µM | TGI (HOP-92 NSCLC): > 100 µM | TGI (U251 CNS): > 100 µM | TGI (SK-OV-3 ovarian): > 100 µM | TGI (PC-3 prostate): > 100 µM

c1ccc(C(=NNc2nc3ccccc3[nH]2)c2ccccn2)nc1
TGI (OVCAR-3 ovarian): > 100 µM | TGI (HCT-15 colon): > 100 µM | TGI (SF-268 CNS): > 55.3 µM | TGI (NCI-H23 lung): > 100 µM | TGI (ACHN renal): 0.698 µM | TGI (SK-MEL-28 melanoma): > 100 µM | TGI (HOP-92 NSCLC): 0.182 µM | TGI (U251 CNS): > 69 µM | TGI (SK-OV-3 ovarian): 0.828 µM | TGI (PC-3 prostate): 5.43 µM

CC(O)(c1ccccc1)c1nccc2ccccc12 (stereo not given)
TGI (OVCAR-3 ovarian): > 100 µM | TGI (HCT-15 colon): > 100 µM | TGI (SF-268 CNS): > 100 µM | TGI (NCI-H23 lung): > 100 µM | TGI (ACHN renal): > 100 µM | TGI (SK-MEL-28 melanoma): > 100 µM | TGI (HOP-92 NSCLC): 95.2 µM | TGI (U251 CNS): > 100 µM | TGI (SK-OV-3 ovarian): > 100 µM | TGI (PC-3 prostate): > 100 µM

Cc1ccc(S(=O)(=O)n2cc(-c3cnc(N)c(Br)n3)c3ccccc32)cc1
TGI (OVCAR-3 ovarian): > 45.7 µM | TGI (HCT-15 colon): > 100 µM | TGI (SF-268 CNS): > 100 µM | TGI (NCI-H23 lung): 5.94 µM | TGI (ACHN renal): > 89.4 µM | TGI (SK-MEL-28 melanoma): > 57 µM | TGI (HOP-92 NSCLC): > 27.5 µM | TGI (U251 CNS): > 77.5 µM | TGI (SK-OV-3 ovarian): > 100 µM | TGI (PC-3 prostate): > 31.1 µM

O=C(Nc1ccc2ccccc2c1)Nn1cnnc1
TGI (OVCAR-3 ovarian): > 100 µM | TGI (HCT-15 colon): > 100 µM | TGI (SF-268 CNS): > 100 µM | TGI (NCI-H23 lung): > 100 µM | TGI (ACHN renal): > 100 µM | TGI (SK-MEL-28 melanoma): > 100 µM | TGI (HOP-92 NSCLC): > 100 µM | TGI (U251 CNS): > 100 µM | TGI (SK-OV-3 ovarian): > 100 µM | TGI (PC-3 prostate): > 100 µM

COc1ccc2[nH]c(C(=O)N3CC(CCl)c4ccc([N+](=O)[O-])cc43)cc2c1 (stereo not given)
TGI (OVCAR-3 ovarian): > 100 µM | TGI (HCT-15 colon): > 100 µM | TGI (SF-268 CNS): > 100 µM | TGI (NCI-H23 lung): > 100 µM | TGI (ACHN renal): > 100 µM | TGI (SK-MEL-28 melanoma): > 100 µM | TGI (HOP-92 NSCLC): > 100 µM | TGI (U251 CNS): > 100 µM | TGI (SK-OV-3 ovarian): > 100 µM | TGI (PC-3 prostate): > 100 µM

COc1cc2c3c(cc(Cl)nc3c1OC)C(O)(CC(C)=O)C(=O)N2 (stereo not given)
TGI (OVCAR-3 ovarian): > 100 µM | TGI (HCT-15 colon): > 62.5 µM | TGI (SF-268 CNS): 18 µM | TGI (NCI-H23 lung): > 60.8 µM | TGI (ACHN renal): > 54 µM | TGI (SK-MEL-28 melanoma): > 60.7 µM | TGI (HOP-92 NSCLC): 34.3 µM | TGI (U251 CNS): > 100 µM | TGI (SK-OV-3 ovarian): > 72.8 µM | TGI (PC-3 prostate): > 56.4 µM

O=c1c2cc(-c3ccccc3)cnc2sn1-c1ccc([N+](=O)[O-])cc1
TGI (OVCAR-3 ovarian): 60.2 µM | TGI (HCT-15 colon): > 100 µM | TGI (SF-268 CNS): > 100 µM | TGI (NCI-H23 lung): > 100 µM | TGI (ACHN renal): > 100 µM | TGI (SK-MEL-28 melanoma): > 100 µM | TGI (HOP-92 NSCLC): > 100 µM | TGI (U251 CNS): 95.1 µM | TGI (SK-OV-3 ovarian): > 100 µM | TGI (PC-3 prostate): > 100 µM

Cc1cc(S(=O)(=O)O)ccc1N=Nc1ccc(N=Nc2c(O)ccc3ccccc23)c(C)c1
TGI (OVCAR-3 ovarian): > 100 µM | TGI (HCT-15 colon): > 100 µM | TGI (SF-268 CNS): > 100 µM | TGI (NCI-H23 lung): > 100 µM | TGI (ACHN renal): > 100 µM | TGI (SK-MEL-28 melanoma): > 100 µM | TGI (HOP-92 NSCLC): > 100 µM | TGI (U251 CNS): > 100 µM | TGI (SK-OV-3 ovarian): > 100 µM | TGI (PC-3 prostate): > 100 µM

C[C@H](CC[C@@H](O)C(C)(C)O)[C@H]1CC[C@@]2(C)[C@@H]3CC=C4[C@@H](CC[C@H](OC5OC(CO)C(O)C(O)C5O)C4(C)C)[C@]3(C)C(=O)C[C@]12C (stereo not given in full)
TGI (OVCAR-3 ovarian): > 100 µM | TGI (HCT-15 colon): > 100 µM | TGI (SF-268 CNS): > 100 µM | TGI (NCI-H23 lung): > 100 µM | TGI (ACHN renal): 98.5 µM | TGI (SK-MEL-28 melanoma): 77.8 µM | TGI (HOP-92 NSCLC): > 100 µM | TGI (U251 CNS): > 100 µM | TGI (SK-OV-3 ovarian): > 100 µM | TGI (PC-3 prostate): > 100 µM

CN(N)C(=O)NCCCl
TGI (OVCAR-3 ovarian): > 100 µM | TGI (HCT-15 colon): > 100 µM | TGI (SF-268 CNS): > 100 µM | TGI (NCI-H23 lung): > 100 µM | TGI (ACHN renal): > 100 µM | TGI (SK-MEL-28 melanoma): > 100 µM | TGI (HOP-92 NSCLC): > 100 µM | TGI (U251 CNS): > 100 µM | TGI (SK-OV-3 ovarian): > 100 µM | TGI (PC-3 prostate): > 100 µM

O=C1Nc2ccccc2NC1C1OC(c2ccccc2)=CC1=O (stereo not given)
TGI (OVCAR-3 ovarian): > 100 µM | TGI (HCT-15 colon): > 100 µM | TGI (SF-268 CNS): > 100 µM | TGI (NCI-H23 lung): > 100 µM | TGI (ACHN renal): > 100 µM | TGI (SK-MEL-28 melanoma): > 100 µM | TGI (HOP-92 NSCLC): > 100 µM | TGI (U251 CNS): > 100 µM | TGI (SK-OV-3 ovarian): > 100 µM | TGI (PC-3 prostate): > 100 µM

[N-]=[N+]=C1CNC(=O)NC1=O
TGI (OVCAR-3 ovarian): > 100 µM | TGI (HCT-15 colon): > 100 µM | TGI (SF-268 CNS): > 100 µM | TGI (NCI-H23 lung): > 100 µM | TGI (ACHN renal): > 100 µM | TGI (SK-MEL-28 melanoma): > 100 µM | TGI (HOP-92 NSCLC): > 100 µM | TGI (U251 CNS): > 100 µM | TGI (SK-OV-3 ovarian): > 100 µM | TGI (PC-3 prostate): > 100 µM
